In ChEMBL document CHEMBL1201862, “PubChem BioAssay data set” (2004):
Calls of active or inactive are those of the source.

Legend:
[1] = test system: Vero; assay: Vero cell toxicity, dose response, cytotoxicity control, plate reader, cherry-pick samples (AID 687020); type: functional, cell-based; settings: Chlorocebus sabaeus
[2] = test system: A549; assay: A549 cell toxicity, dose response, cytotoxicity control, plate reader, cherry-pick samples (AID 687028); type: functional, cell-based; settings: Homo sapiens
[3] = biological target: Luciferin 4-monooxygenase (Photinus pyralis, UniProt P08659); assay: firefly luciferase enzyme inhibitors, dose response, biochemical, luminescence (AID 1891)
[4] = test system: BJ; assay: cytotoxicity toward Ras-transformed BJeLR fibroblasts, dose response, cell-based, alamar blue fluorescence, cherrypicked samples (AID 2631); type: functional; settings: Homo sapiens;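 also: confirmatory dose-response assay in RAS-dependent BJ fibroblasts engineered with TERT, LT and ST, with cytotoxicity read by fluorescence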
[5] = Luminescence Cell-Based Dose Confirmation HTS to Identify Inhibitors of Platelet Dense Granule Release. [Related pubchem assays: 1663 (Primary HTS), 1678 (Summary of Project)]; type: functional
[6] = test system: BJ; assay: cells; type: functional, cell-based, Homo sapiens; settings: Homo sapiens, BJ
[7] = test system: INS1; assay: beta cell apoptosis inhibitors, cytokine rescue, dose response, luminescence, retest (AID 449756); type: functional, cell-based; settings: Rattus norvegicus;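 also: cell death triggered by IL-1 beta plus TNF-alpha plus IFN-gamma mixture; protective hits raise ATP signal compared with cytokine alone wells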
[8] = test system: BJ; assay: cytotoxicity toward BJ-TERT-LT-ST fibroblasts, dose response, cell-based, RAS-independent, luminescence (AID 1935); type: functional; settings: Homo sapiens;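 also: BJ fibroblasts immortalized with TERT plus LT and ST oncogenes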
[9] = test system: BJ; assay: cytotoxicity toward BJ-TERT fibroblasts, dose response, cell-based, RAS-independent, luminescence (AID 1933); type: functional; settings: Homo sapiens
[10] = cytotoxicity toward DRD oncogenic fibroblasts, dose response, cell-based, non-viral oncogenic, luminescence (AID 1934); type: functional; settings: Homo sapiens
[11] = HepG2 cell cytotoxicity, dose response, cytotoxicity control, ATP luminescence, cherry-pick, activator set 2 (AID 1053143); type: functional, cell-based
[12] = biological target: Nuclear receptor subfamily 0 group B member 1 (Homo sapiens, UniProt P51843); type: functional, cell-based;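 also: HEK293T cells transfected with SF-1 and DAX-1 plus StAR promoter luciferase reporter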
[13] = cells; type: functional, cell-based
[14] = biological target: Potassium channel subfamily K member 9 (Homo sapiens, UniProt Q9NPC2); assay: TASK3 (KCNK9) channel inhibitors, thallium flux, SAR follow-up, selectivity assay for TASK1 inhibitor project, cell-based, FluxOR thallium flux, concentration-response (AID 652211); type: functional;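 also: potency is for inhibitors of the channel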
[15] = C. albicans growth with fluconazole, confirmation, fluorescence, retest (AID 2467); type: functional, cell-based
[16] = NIH-3T3 fibroblast cytotoxicity, dose response, cytotoxicity control, cell-based, fluorescence, Alamar Blue, secondary assay (AID 2327); type: functional;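 also: NIH-3T3 mouse fibroblasts cultured with fluconazole at 8 µg/mL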
[17] = biological target: 1-phosphatidylinositol 4,5-bisphosphate phosphodiesterase gamma-1 (Homo sapiens, UniProt P19174); assay: Counterscreen for inhibitors of phospholipase C isozymes (PLC-B3): Fluorescence-based biochemical high throughput dose response assay to identify inhibitors of phospholipase C isozymes (PLC-gamma1).
[18] = biological target: T1, Serine/threonine-protein phosphatase (Candida dubliniensis (strain CD36 / CBS 7987 / NCPF 3949 / NRRLY-17841) (Yeast), UniProt B9W6M3); assay: calcineurin pathway inhibitors in yeast reporter, dose response, S. cerevisiae, CDRE-lacZ, luminescence, secondary (AID 2388); type: functional, cell-based;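 also: yeast reporter cells carrying a calcineurin-responsive lacZ construct stimulated with calcium chloride; luminescent beta-galactosidase reporter signal in whole cells rather than isolated phosphatase activity; potency for inhibition where a drop in reporter signal means calcineurin blockade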
T1 sequence (B9W6M3 whole entry): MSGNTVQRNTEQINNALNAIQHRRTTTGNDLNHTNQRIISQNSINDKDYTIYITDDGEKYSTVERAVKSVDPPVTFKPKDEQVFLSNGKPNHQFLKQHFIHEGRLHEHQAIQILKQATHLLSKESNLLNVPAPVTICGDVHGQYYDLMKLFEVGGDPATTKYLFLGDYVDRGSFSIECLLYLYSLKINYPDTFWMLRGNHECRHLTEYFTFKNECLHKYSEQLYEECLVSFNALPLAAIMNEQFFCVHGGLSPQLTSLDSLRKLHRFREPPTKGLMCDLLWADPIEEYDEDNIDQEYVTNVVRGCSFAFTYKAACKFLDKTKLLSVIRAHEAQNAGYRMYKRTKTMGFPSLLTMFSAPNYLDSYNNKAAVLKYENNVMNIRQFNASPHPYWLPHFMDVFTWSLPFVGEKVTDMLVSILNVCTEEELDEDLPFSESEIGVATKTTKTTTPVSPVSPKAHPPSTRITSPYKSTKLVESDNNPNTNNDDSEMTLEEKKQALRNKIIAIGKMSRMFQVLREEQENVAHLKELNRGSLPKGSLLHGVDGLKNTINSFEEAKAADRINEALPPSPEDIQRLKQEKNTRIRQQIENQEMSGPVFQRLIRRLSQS

[19] = biological target: 1-phosphatidylinositol 4,5-bisphosphate phosphodiesterase beta-3 (Homo sapiens, UniProt Q01970); assay: Fluorescence-based biochemical high throughput dose response assay to identify inhibitors of phospholipase C isozymes (PLC-B3).
[20] = biological target: ATP-dependent molecular chaperone HSP82 (Candida albicans (strain WO-1) (Yeast), UniProt C4YTQ8); assay: loss of DOC-induced GRE-beta-galactosidase reporter signal, dose response, Hsp90 inhibitor project, S. cerevisiae, luminescence (AID 2400); type: functional, cell-based;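 also: beta-galactosidase luminescence from glucocorticoid response element reporter as proxy for Hsp90 function; inhibitor potency where signal loss means Hsp90 inhibition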
[21] = biological target: Heat shock protein HSP 90-alpha (Homo sapiens, UniProt P07900); type: functional, organism-based
[22] = Late stage assay provider results from the probe development effort to identify inhibitors of the Plasmodium falciparum M17 Leucine Aminopeptidase (M17LAP): radiolabel-based cell-based dose response assay to identify compounds that inhibit P. falciparum growth in RBCs Set 2.; type: functional
[23] = test system: HeLa; assay: HeLa cell cytotoxicity, dose response, cytotoxicity control, ATP luminescence, cherry-pick samples (AID 687004); type: functional, cell-based; settings: Homo sapiens
[24] = biological target: T2, High affinity choline transporter 1 (Homo sapiens, UniProt Q9GZV3); assay: CHT choline uptake inhibitors, dose response, cell-based, HEK-293 hCHT, [3H]-choline uptake (AID 652177); type: functional
T2 sequence (Q9GZV3 whole entry): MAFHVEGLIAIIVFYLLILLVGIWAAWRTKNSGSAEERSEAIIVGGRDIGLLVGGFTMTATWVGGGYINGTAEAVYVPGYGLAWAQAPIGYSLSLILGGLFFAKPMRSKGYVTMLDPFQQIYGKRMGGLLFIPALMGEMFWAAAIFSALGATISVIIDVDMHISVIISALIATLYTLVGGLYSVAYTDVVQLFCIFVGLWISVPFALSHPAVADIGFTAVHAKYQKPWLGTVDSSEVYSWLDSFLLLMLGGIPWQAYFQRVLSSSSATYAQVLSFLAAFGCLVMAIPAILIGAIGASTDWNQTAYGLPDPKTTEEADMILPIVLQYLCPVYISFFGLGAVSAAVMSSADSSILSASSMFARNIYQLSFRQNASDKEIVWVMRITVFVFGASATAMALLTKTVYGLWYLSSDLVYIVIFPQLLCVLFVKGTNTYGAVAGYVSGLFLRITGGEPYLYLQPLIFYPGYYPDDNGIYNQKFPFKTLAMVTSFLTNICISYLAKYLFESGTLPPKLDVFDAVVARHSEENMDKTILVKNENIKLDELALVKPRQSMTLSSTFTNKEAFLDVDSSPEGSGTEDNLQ

Chain of ATP-dependent molecular chaperone HSP82 (C4YTQ8 whole entry): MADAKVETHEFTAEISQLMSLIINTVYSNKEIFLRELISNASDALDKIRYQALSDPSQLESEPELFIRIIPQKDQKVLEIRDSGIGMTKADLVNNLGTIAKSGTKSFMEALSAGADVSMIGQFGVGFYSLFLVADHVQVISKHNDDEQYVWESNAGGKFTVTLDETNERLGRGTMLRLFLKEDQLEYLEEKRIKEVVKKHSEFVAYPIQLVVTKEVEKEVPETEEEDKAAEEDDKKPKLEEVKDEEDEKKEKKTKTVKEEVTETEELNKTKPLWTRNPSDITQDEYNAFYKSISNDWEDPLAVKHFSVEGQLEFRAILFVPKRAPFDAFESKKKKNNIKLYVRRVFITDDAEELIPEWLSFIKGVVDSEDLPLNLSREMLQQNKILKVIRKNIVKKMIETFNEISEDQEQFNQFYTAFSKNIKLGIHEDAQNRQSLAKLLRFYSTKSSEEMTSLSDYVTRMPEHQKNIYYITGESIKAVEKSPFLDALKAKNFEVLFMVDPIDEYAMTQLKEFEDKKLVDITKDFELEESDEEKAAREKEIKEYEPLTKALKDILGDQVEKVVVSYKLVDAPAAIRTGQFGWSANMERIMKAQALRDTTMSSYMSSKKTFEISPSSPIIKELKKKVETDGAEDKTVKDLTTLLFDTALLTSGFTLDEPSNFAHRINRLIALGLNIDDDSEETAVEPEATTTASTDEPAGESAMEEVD
Chain of Potassium channel subfamily K member 9 (Q9NPC2 whole entry): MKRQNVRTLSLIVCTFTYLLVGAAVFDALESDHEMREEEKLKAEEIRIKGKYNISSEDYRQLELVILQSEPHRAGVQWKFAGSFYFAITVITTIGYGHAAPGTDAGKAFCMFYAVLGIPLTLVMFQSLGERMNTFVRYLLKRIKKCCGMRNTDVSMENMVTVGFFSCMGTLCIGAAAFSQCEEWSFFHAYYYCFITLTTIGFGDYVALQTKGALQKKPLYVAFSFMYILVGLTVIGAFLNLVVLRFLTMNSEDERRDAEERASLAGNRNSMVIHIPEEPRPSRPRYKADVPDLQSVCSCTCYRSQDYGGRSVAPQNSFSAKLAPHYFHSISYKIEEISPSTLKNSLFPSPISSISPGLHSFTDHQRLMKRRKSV
Chain of 1-phosphatidylinositol 4,5-bisphosphate phosphodiesterase beta-3 (Q01970 whole entry): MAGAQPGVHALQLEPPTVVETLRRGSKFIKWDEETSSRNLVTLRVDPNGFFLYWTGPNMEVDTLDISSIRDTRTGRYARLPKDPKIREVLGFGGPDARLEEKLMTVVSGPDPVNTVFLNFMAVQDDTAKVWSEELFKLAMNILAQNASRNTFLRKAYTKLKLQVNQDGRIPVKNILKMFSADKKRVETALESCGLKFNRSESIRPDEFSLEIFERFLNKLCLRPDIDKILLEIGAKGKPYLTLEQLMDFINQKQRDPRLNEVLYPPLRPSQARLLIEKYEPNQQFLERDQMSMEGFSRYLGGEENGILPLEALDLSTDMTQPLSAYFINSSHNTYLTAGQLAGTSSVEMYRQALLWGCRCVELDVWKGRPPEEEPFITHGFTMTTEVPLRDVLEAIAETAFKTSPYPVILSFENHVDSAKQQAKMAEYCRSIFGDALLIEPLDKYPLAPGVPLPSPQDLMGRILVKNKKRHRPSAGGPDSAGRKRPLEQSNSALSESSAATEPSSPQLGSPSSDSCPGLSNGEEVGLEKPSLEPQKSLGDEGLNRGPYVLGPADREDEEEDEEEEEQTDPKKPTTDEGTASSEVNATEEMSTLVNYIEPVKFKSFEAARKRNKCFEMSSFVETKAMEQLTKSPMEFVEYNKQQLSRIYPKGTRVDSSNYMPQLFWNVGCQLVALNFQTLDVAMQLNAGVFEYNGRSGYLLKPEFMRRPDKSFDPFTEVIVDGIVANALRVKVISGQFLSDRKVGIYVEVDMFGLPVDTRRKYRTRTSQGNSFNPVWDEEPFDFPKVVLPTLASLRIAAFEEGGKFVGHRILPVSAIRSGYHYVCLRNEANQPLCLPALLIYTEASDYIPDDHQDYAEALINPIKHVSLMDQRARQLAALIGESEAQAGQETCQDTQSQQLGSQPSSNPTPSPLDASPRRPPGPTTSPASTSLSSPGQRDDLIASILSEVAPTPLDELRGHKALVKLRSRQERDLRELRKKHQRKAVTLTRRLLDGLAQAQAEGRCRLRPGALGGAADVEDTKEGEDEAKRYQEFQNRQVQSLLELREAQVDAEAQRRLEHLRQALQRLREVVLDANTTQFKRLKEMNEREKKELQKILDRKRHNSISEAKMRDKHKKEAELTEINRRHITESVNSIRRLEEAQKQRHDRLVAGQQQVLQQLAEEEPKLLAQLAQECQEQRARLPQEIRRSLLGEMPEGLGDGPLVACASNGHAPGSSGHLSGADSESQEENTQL
Chain of Luciferin 4-monooxygenase (P08659 whole entry): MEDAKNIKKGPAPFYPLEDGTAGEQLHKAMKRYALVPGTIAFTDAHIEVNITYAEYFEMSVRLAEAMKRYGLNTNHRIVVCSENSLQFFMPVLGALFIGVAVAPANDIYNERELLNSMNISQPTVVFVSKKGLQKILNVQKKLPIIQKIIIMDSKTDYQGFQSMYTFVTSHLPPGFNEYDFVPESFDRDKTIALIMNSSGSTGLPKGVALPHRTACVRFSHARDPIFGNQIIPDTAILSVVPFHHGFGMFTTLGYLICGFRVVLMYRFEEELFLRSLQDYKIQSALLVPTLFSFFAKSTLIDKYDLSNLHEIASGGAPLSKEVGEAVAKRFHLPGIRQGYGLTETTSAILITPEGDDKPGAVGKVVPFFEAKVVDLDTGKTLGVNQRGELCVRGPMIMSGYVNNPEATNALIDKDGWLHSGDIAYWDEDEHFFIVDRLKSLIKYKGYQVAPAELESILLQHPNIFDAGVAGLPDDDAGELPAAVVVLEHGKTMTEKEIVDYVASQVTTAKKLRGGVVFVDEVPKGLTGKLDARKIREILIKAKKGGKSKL
Chain of Nuclear receptor subfamily 0 group B member 1 (P51843 whole entry): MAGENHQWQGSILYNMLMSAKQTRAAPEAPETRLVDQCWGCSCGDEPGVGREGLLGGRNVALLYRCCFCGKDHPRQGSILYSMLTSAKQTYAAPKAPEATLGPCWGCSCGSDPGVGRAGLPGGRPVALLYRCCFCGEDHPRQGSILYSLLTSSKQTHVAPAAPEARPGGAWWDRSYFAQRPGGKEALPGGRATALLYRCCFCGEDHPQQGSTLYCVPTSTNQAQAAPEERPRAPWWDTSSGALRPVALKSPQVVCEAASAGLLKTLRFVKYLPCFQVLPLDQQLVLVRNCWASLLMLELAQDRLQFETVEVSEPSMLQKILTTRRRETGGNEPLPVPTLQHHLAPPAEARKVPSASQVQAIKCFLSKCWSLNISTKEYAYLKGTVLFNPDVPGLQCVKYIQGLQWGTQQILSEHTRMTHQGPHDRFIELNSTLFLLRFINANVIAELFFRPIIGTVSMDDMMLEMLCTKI
Chain of 1-phosphatidylinositol 4,5-bisphosphate phosphodiesterase gamma-1 (P19174 whole entry): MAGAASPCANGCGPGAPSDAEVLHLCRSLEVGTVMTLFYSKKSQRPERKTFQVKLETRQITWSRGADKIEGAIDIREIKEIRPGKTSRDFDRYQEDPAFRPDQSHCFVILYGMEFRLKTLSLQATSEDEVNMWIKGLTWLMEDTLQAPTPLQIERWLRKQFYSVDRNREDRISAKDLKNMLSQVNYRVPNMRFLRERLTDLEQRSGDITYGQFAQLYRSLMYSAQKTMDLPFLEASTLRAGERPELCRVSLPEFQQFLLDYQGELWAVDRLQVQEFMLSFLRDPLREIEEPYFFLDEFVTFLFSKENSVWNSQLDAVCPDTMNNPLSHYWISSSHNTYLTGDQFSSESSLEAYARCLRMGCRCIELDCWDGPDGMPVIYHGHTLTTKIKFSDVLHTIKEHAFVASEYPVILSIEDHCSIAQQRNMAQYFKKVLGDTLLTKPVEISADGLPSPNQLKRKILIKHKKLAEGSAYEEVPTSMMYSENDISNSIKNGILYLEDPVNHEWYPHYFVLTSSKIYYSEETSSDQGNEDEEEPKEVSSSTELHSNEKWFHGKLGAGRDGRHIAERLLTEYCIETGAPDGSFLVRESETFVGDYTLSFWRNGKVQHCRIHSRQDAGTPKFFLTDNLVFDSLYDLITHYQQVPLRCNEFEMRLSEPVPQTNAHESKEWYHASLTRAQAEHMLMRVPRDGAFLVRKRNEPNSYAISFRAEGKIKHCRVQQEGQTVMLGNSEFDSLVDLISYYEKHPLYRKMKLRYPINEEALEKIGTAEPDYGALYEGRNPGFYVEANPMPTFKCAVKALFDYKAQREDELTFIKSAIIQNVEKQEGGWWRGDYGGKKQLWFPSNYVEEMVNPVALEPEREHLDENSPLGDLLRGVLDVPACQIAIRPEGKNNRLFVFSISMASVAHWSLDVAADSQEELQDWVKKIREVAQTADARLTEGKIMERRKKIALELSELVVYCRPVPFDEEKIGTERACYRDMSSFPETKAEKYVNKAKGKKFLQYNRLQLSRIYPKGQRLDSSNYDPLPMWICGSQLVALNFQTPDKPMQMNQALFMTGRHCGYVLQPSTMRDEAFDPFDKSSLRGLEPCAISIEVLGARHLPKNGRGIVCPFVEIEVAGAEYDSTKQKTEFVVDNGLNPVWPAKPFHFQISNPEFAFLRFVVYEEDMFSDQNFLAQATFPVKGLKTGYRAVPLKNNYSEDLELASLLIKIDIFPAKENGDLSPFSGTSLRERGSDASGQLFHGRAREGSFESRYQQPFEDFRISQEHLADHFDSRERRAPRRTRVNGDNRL

O=C(CN1CCN(C(=O)C2CCC2)CC1)Nc1ccc(F)cc1
AC50 [1]: 28.2 µM (active)
AC50 [2]: 21.4 µM (active)

Cc1occc1C(=O)N/N=C/c1ccc2c(c1)OCO2
EC50 [3]: 1.4 µM (active)
EC50 [4]: > 133 µM (inactive)
EC50 [5]: 1.77 µM (active)
EC50 [6]: 7.36 µM (active)
AC50 [7]: 4.17 µM (active)
EC50 [8]: 16.8 µM (active)
EC50 [9]: 8.43 µM (active)
EC50 [10]: 5.68 µM (active)
AC50 [11]: 8.12 µM (active)

CS(=O)(=O)c1cccc(C(=O)Nc2ccc(-c3nc4ccccc4[nH]3)cc2)c1
IC50 [12]: > 67.5 µM (inactive)
IC50 [13]: > 67.5 µM (inactive)

Cc1cccc(C(=O)Nc2cccc(NC(=O)c3cccc(Cl)c3)c2)c1
IC50 [14]: 13.4 µM (active)

N=C(Cc1ccc(Cl)c(Cl)c1)NOC(=O)c1cccs1
EC50 [15]: 376 nM (active)
EC50 [16]: > 160 µM (inconclusive)
IC50 [17]: > 122 µM (inactive)
EC50 [18]: > 180 µM (inactive)
IC50 [19]: > 122 µM (inactive)
EC50 [20]: 11.6 µM (active)
AC50 [21]: 3.01 µM (active)

CCCCOc1ccc(C(=O)NO)cc1
IC50 [22]: 11.3 µM (inactive)

CNC(=O)C[C@H]1CC[C@H]2[C@@H](COc3ccc(NC(=O)Nc4cccc(C#N)c4)cc3C(=O)N2C)O1
AC50 [23]: 27.2 µM (active)

COc1ccc(C(=O)NCc2cc(C(C)C)no2)cc1OC1CCCN(C)C1 (centres undefined)
IC50 [24]: 1.25 µM (active)
